“And” between values parts separate entries of the source, which are not always exact repeats. Equal values may be shown once. Read-outs that look alike come from different tables or passages of the source. Marks after values point to notes of the source that are not given here.
How the values were obtained:
interleukin-1 alpha [1] = test: EPIDERM skin culture irritation test, fecal protease (trypsin-chymotrypsin) insult, IL-1 alpha release; assay type: cell-based, human
Experimental: In order to evaluate the efficacy of the compositions of the invention, a human skin culture was selected to model the response of the human epidermis. EPIDERM skin culture is a cornified, air-interfaced human skin culture. EPIDERM skin culture has multiple layers of progressively differentiated keratinocytes resembling human epidermis. EPIDERM EPI-200 skin culture can be purchased from MatTek Corporation of Ashland, Mass. Experiments using EPIDERM skin culture are conducted in six well plates. Typically, five EPIDERM skin culture inserts are added to five of the six wells. Each well contains one milliliter of pre-warmed media that is the same as the EPIDERM skin culture media. The plates are then incubated in a 37° C., 5% CO2 incubator for thirty minutes. After incubation, 15 microliters of test composition or control are applied to the surface of the EPIDERM skin culture after removing any residual media. The well plates, with the test compositions/control applied, are incubated in the 37° C., 5% CO2 incubator for thirty minutes after which the underlying media is removed and replaced with fresh, pre-warmed media. Next, ten microliters of insult solution, either fecal protease or bile acid, are applied to the surface of the EPIDERM skin culture.
The insult solution is prepared by diluting a 10 mg/ml stock solution in phosphate-buffered saline to a working concentration of 250 µg/ml. The base of the stock solution is 50 mM NaOAcetate, pH 5.5 and 0.15 M NaCl stored at −80° C. […] The bile acid insult solution can be prepared by dissolving 65 mg of cholic acid, 62 mg of deoxycholic acid and 31 mg of chenodeoxycholic acid in 10 ml of phosphate-buffered saline. The bile acid insult components can be purchased from Sigma Chemical Co. of St. Louis, Mo. Phosphate-buffered saline, pH 7.4 (hereinafter “PBS”) can be purchased from Life Technologies of Rockville, Md.
For internal studies, infant feces were collected and the amount of total protease and trypsin activities determined for each of the fecal extracts. To prepare the extract, the feces were suspended in water and vigorously vortexed. After vortexing, the samples were held on ice prior to centrifugation at 15,000 times the force of gravity for 20 minutes. The supernatant was filtered through 0.22 micron cellulose acetate filters and stored at −80° C. until use.
After application of the insult solution, the well plates are incubated for six hours in the 37° C., 5% CO2 incubator. At the end of six hours, the well plates are removed from the incubator, the underlying media is removed and stored at −80° C. The response of the EPIDERM skin culture to the test compositions/control and the insult solution is determined by measuring the amount of interleukin-1 alpha (hereinafter “IL-1”). Interleukin-1 alpha can be quantified using an Interleukin-1 alpha Quantikine Kit available from R&D Systems of Minneapolis, Minn. Interleukin-1 alpha measurements are converted to Log10 for each of the treatments and the averages for each treatment are calculated. In order to determine the ability of the test compositions to reduce skin irritation caused by the biological insults, the percent mean reduction of IL-1 is calculated as follows: [formula]
EPIDERM skin culture studies were conducted to measure the reduction in IL-1 response between compositions of the invention and a fecal protease-induced irritation. The studies were conducted using botanicals that are representative of the invention.

EPIDERM skin culture [2] = test: MTT viability assay on EPIDERM skin culture after test composition + insult
Description: (§1) The MTT dye is taken up by the cells. The reduction of the dye as a result of cellular metabolism can be used to measure the cytotoxicity of the test compositions. In order to confirm viability, inserts of the EPIDERM skin culture that have already been subjected to the test compositions and biological insults are removed from their media and are washed consecutively through immersion in three different beakers of PBS. Fresh PBS is used for each test composition or control being evaluated. The PBS is discarded onto paper towel. The EPIDERM skin culture inserts are then patted onto paper towel and placed into the wells of a 24 well plate containing 300 microliters of pre-warmed media. After all of the EPIDERM skin culture inserts are washed, they are transferred to new 24 well plates containing 300 microliters of the MTT reagent. The MTT reagent is thiazolyl blue having the formula 3-[4,5-Dimethylthiazol-2-yl]-2,5-diphenyltetrzoliumbromide. The plates are incubated for 2 hours in a 37° C., 5% CO2 incubator. After incubation, the EPIDERM skin culture inserts are transferred to 24 well plates and are immersed in 2 milliliters of MTT extraction buffer. The extraction buffer extracts the MTT reagent from the cells. The 24 well plates are parafilmed, covered and placed in ZIPLOCK bags to reduce evaporation of the extraction buffer. The covered plates are rocked overnight in the dark. Following overnight rocking, the liquid in the EPIDERM skin culture inserts is decanted back into the wells. The contents of each well are mixed and a 200 microliter aliquot is then removed from each well and transferred to a 96 well plate. The optical density (OD) of the samples is measured at 570 nm using a spectrophotometer. Five hundred seventy nanometers is the optimal wavelength at which to measure the reduced form of MTT reagent. This reading is subtracted from a background reading at 650 nm to improve data quality. Percent viability of each test composition+insult relative to the control+PBS is recorded as the Mean ODtest composition+insult divided by the Mean ODcontrol+PBS; the quotient then multiplied by 100.

[3] = target: T1, porcine pancreatic trypsin (Sus scrofa, UniProt P00761); test: Trypsin inhibition in solution with BAPNA chromogenic substrate; assay type: biochemical; details: for Trypsin Inhibition (IC50): solid form dissolved in PBS
T1 construct: purchased Sigma Chemical of St. Louis, Mo; host or cells: pancreas (porcine)
Experimental: More specifically, compositions of the invention were evaluated for their inhibitory effect on porcine pancreatic trypsin in solution. Porcine pancreatic trypsin from Sigma Chemical of St. Louis, Mo. was prepared at a concentration of 1600 ng/ml in 100 mM Tris-HCL pH 8.0-buffer. Twenty-five microliters of the porcine pancreatic trypsin was added to the wells of a NUNC IMMUNO clear 96 well plate. The wells also contained 150 µl of 100 mM Tris-HCL pH 8.0 buffer and 25 µl of a test composition diluted as necessary in PBS. After a fifteen minute incubation at room temperature, the reaction is initiated by adding 50 µl of a 5 mM solution of chromogenic trypsin substrate (N-benzyl-arginine-p-nitroanalide (BAPNA)) to each of the wells. The BAPNA is prepared at 50 mM in neat dimethylsulfoxide and diluted in water to a 5mM working stock solution. In order to measure the progress of the reactions, optical density measurements were taken at 405 nm every 20 seconds (after a two minute delay) for 10 minutes with a THERMOMAX Microplate Reader (Molecular Devices, Sunnyvale, Calif.). […] Below. The IC50 value is based on a dilution of the liquid stock botanical. The actual concentration of the botanical/salt compositions is not known except for those compositions available in solid form. For the solid forms, stock concentrations in PBS can be accurately made up.

interleukin-1 alpha [4] = test: EPIDERM skin culture irritation test, protease and bile acid insult, IL-1 alpha release; assay type: cell-based, human; details: 4 mg/ml in water, 30 minutes pretreatment; protease and bile acid insult 6 hours; sample size six
Experimental: An additional set of EPIDERM skin culture experiments was conducted to predict the effect of extracted botanical actives on the irritation response to a protease and bile acid insult. The method for utilizing the EPIDERM skin culture described above was also used for this set of experiments evaluating response to a protease and bile acid insult. The EPIDERM skin culture was pretreated with 15 l of test composition containing 4 mg/ml of epigallocatecin gallate in water for a period of 30 minutes in a 37° C./5% CO2 incubator. The skin culture wells were then treated with 10 µl of a protease and bile acid insult for 6 hours under the same incubation conditions. Phosphate-buffered saline solution of pH 7.4 was used as a negative control. After 6 hours, the underlying media is removed and stored at -80° C. The amount of IL-1 from the media was quantified using an Interleukin-1 alpha Quantikine Kit available from R&D Systems of Minneapolis, Minn. The protease and bile acid insult was prepared by mixing equal volumes of a bile acid insult with a protease insult. The bile acid insult included 13 mg/ml cholic acid (sodium salt), 12.4 mg/ml deoxycholic acid (sodium salt) and 6.2 mg/ml chenodeoxycholic acid (sodium salt) prepared in pH 7.4 phosphate-buffered saline. […]

EPIDERM skin culture [5] = details: human, 4 mg/ml
Description: as §1

[6] = 4 mg/ml in PBS, trypsin-chymotrypsin insult (Table 3)

T1 sequence (P00761 9-231): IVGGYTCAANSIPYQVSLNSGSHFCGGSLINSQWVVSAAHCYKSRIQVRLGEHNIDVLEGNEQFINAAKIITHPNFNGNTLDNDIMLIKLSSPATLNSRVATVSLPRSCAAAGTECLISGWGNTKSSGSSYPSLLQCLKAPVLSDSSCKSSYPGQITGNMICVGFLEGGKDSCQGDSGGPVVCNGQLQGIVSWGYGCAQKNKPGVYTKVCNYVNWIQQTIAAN

Row | SMILES | Mean Reduction of Interleukin-1 Alpha (percentage) (interleukin-1 alpha [1]; [6]) | Viability (percentage) (EPIDERM skin culture [2]; [6]) | Trypsin Inhibition (IC50) [3] | further results
1 | O=C(O[C@@H]1Cc2c(O)cc(O)cc2O[C@@H]1c1ccc(O)c(O)c1)c1cc(O)c(O)c(O)c1 [Epicatechin gallate] | 62% (5)* | 143% | – | –
2 | Oc1cc(O)c2c(c1)O[C@H](c1ccc(O)c(O)c1)[C@H](O)C2 [Epicatechin] | 24% (5) | 111% | – | –
3 | O=C(O[C@@H]1Cc2c(O)cc(O)cc2O[C@@H]1c1cc(O)c(O)c(O)c1)c1cc(O)c(O)c(O)c1 [Epigallocatechin gallate] | – | 126% | 0.00002% (w/v) | Mean Reduction of Interleukin-1 Alpha (percentage) (interleukin-1 alpha [1]; 0.4% (w/v) in PBS, fecal protease insult 6 hours, one value per set of experiments): 77% and 71% and 50%; reduction of trypsin activity in solution (in words) ([3]; conclusion from Table 5): effective at reducing trypsin activity in solution; IL-1 reduction (interleukin-1 alpha [4]): 28%; Viability (percentage) (EPIDERM skin culture [2]; 0.4% (w/v) in PBS + protease insult, relative to control + PBS): 103% and 101% and 112%
4 | Oc1cc(O)c2c(c1)O[C@H](c1cc(O)c(O)c(O)c1)[C@H](O)C2 [Epigallocatechin] | 30% (5) | – | – | Viability (percentage) (EPIDERM skin culture [5]): 125%
5 | [Cl-].[Cl-].[Sr+2] [Strontium Chloride] | – | – | >0.5% (w/v) | Mean Reduction of Interleukin-1 Alpha (percentage) (interleukin-1 alpha [1]; 1% in PBS, fecal protease insult 6 hours, one value per set of experiments): 0% (10); Mean Reduction of Interleukin-1 Alpha (percentage) (interleukin-1 alpha [1]; 10% in PBS, fecal protease insult 6 hours, one value per set of experiments): 15% (10)
